This passage reports IC50 results from BindingDB's records for doi:10.1021/acs.jmedchem.6b01595 (Dipartimento Di Chimica E Tecnologie Del Farmaco "Sapienza" …, 2017).

In the assay the target is T1, Histone deacetylase (Plasmodium falciparum (isolate 3D7), UniProt Q7K6A1).
T1 sequence (Q7K6A1 whole entry): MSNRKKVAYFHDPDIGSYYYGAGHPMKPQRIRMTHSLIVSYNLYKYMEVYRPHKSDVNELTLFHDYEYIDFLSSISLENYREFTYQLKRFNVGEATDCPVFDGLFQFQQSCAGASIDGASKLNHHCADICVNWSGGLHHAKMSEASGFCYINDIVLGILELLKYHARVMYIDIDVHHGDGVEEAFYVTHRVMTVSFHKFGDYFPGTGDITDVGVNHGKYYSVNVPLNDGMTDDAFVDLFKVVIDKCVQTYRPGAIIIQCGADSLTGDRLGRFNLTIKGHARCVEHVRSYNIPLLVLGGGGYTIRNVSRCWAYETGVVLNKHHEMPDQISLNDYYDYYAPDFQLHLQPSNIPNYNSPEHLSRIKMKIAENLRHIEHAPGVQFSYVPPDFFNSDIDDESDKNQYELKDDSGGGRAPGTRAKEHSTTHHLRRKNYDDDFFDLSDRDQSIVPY
Kind of assay: Inhibition of HDAC1 in Plasmodium falciparum 3D7 nuclear extract using Ac-RGK(Ac)-AMC fluorogenic peptide as substrate preincubated for 1 hr followed by substrate addition measured after 10 min by fluorescence assay.

Structures are written as SMILES.

`C/C=C1\NC(=O)[C@H]2CSSCC/C=C/[C@@H](CC(=O)N[C@H](C(C)C)C(=O)N2)OC(=O)[C@H](C(C)C)NC1=O` had an IC50 of 0.9 nM.
